# Source: patent US6436630B1, “Method for testing the toxicity of chemical substances using gastropods” (priority 1998, dated 2002)
# Structures can show the parent of a compound that is named as a salt.
# Legend:
# [1] = system: foot mucosa of slugs of species Arion; test: Slug mucosal toxicity test, Example 2 (15 min daily treatment, four days); conditions: in vivo; for % MP, mucus production as % of the body weight at the start of the day before the treatment / ALP released into PBS / Protein released into PBS: Arion (slug)
# Procedure: As test substance a β-blocking agent propranolo HCl (1% w/v) was used. Benzalkonium chloride (1% w/v) and Propranolol (1% w/v) were prepared in PBS (pH 7.4). The slugs were daily incubated during 15 min with the test solution during four days. After the incubation period the slugs were placed on 500 μL PBS in a petri dish. The PBS was sampled every hour and refreshed with 500 μL PBS for 3 hours after the treatment.
# The enzymes (LDH, ALP) and the total protein released into the PBS were determined. The change in body weight and the mucus production caused by the treatment were examined.
# [2] = system: foot mucosa of slugs (species Arion); test: Slug mucosal toxicity test, Example 1 (15 min daily treatment, five days); format: in vivo; conditions: for % WL, reduction in weight (weight loss) caused by the 15 minute treatment as % of initial body weight of the day / % MP, mucus production as % of the body weight at the start of the day before the treatment: 1% w/v in PBS; for % MP, mucus production as % of the body weight at the start of the day before the treatment / ALP released into PBS / LDH released into PBS / Protein released into PBS: 15 min; for ALP released into PBS / LDH released into PBS / Protein released into PBS: total mean of 7 samples/day per slug
# Excerpt: Initially, the slugs are kept on a culture under controlled conditions of temperature and humidity until they have reached a stable body weight. The purpose of achieving a stable body weight is to improve the reproducibility of the results, particularly as the release of substances from the slugs may conveniently be measured in terms of the body weight thereof. The slugs are then isolated from the culture and placed in a vented plastic box lined with moist paper towel and placed at 95% relative humidity at 20° C. seven days before the start of an experiment. The slugs were not bred in any particular way, i.e. they were wild slugs. It is anticipated that even more accurate and reproducible results can be obtained by selective breeding of the slugs, although as shown by the test results this is not a necessary requirement of the present invention to obtain accurate and useful data.
# The test procedure is simple and rapid. The chemical substance to be tested is applied directly to the mucosal membrane of a slug, e.g. to the foot, by placing the slug individually in a petri dish containing the test substance. Slugs treated with phosphate buffered saline are used as a negative control. As a positive control slugs treated with a known toxic substance, benzalkonium chloride, were used.
# Because the mucosal epithelium of interest is located at the outside of the slug the effect of substances can be easily observed. […] This can also be simply measured by weighing the petri dish before and after the treatment of the slugs with the chemical substance (with the slugs removed in each case). Additionally an indirect response to epithelial damage caused by a chemical substance may be determined by the reduction of the body weight of the slugs due to the leakage of haemolymphatic fluids through the damaged foot surface.
# After the treatment the slugs are transferred individually to a fresh petri dish containing phosphate buffered saline. After a suitable exposure time, e.g. 1 hour the phosphate buffered saline is collected and analysed for the presence of proteins and/or enzymes, e.g. lactate dehydrogenase and/or alkaline phosphatase, or other marker substances released from the foot or epithelium of the slug, for example membrane associated components such as phospholipids or cholesterol. This procedure can be repeated after periods of several hours in order to determine the reversibility of the cell damage caused by the test chemical substance. The concentration or amount of the chemical substance to be tested can be changed and the influence of the concentration can be easily examined. The exposure time can also be changed if required. The slugs can be treated during several successive days in order to investigate the subchronical effect of substances on the foot mucosa.
# Seven days before the start of the experiment the slugs were isolated in a plastic box lined with moist paper towel and placed at 95% relative humidity at 20° C. As test substances didecanyol-L-α-phosphatidylcholine (DDPC) and sodium deoxycholate (SDC) were selected. Benzalkonium chloride (1% w/v), SDC (1% w/v) and DDPC (1%, w/v) were prepared in phosphate buffered saline (PBS, pH 7.4). […] During the test the slugs are preferably kept in a generally calm and normal state and are not subjected to mechanical vibrations or mechanical or electrical disturbances which may affect mucus production.
# The enzymes (lactate dehydrogenase (LDH) and alkaline phosphatase (ALP)) and total protein released into the PBS were determined. The slugs were weighed before and after the incubation period to determine the body weight changes. The mucus production was measured by weighing the petri dishes before and after the treatment with a test substance. The results are shown in Table 1 and shown graphically in FIGS. 1 to 5.
# [3] = system: foot mucosa of slugs of the species Arion; test: Slug mucosal toxicity test of local anaesthetics, Example 4; format: in vivo
# Procedure: The following local anaesthetics were used as test substance: procaine HCl, lidocaine HCl, prilocaine HCl, tetracaine HCl and bupivacaine HCl. All test substances were prepared in PBS (pH 7.4) at 1% w/v concentrations. The slugs were daily incubate during 15 min with the test solution during five days. After the incubation period the slugs were placed on 1 ml PBS in a petri dish. The PBS was sampled every hour and refreshed with 1 ml PBS for 3 hours after the treatment.
# The total protein released into the PBS was determined.
# [4] = 1% w/v, 15 min daily, five days
smiles,measurement,setting,value
"CC(C)NCC(O)COc1cccc2ccccc12 (centres unmarked) [Propr, propranolol HCl]","% MP, mucus production as % of the body weight at the start of the day before the treatment",[1]; 1 day,0.77%
same,ALP released into PBS,[1]; 1 day,0.35 U/L
same,Protein released into PBS,[1]; 1 day,4.89 μg/30 μL
same,"% MP, mucus production as % of the body weight at the start of the day before the treatment",[1]; 2 day,3.74%
same,ALP released into PBS,[1]; 2 day,2.19 U/L
same,Protein released into PBS,[1]; 2 day,31.61 μg/30 μL
same,"% MP, mucus production as % of the body weight at the start of the day before the treatment",[1]; 3 day,3.11%
same,ALP released into PBS,[1]; 3 day,17.50 U/L
same,Protein released into PBS,[1]; 3 day,31.36 μg/30 μL
same,"% MP, mucus production as % of the body weight at the start of the day before the treatment",[1]; 4 day,2.80%
same,ALP released into PBS,[1]; 4 day,18.43 U/L
same,Protein released into PBS,[1]; 4 day,20.88 μg/30 μL
same,colour of the mucus excreted by the slugs,[1],orange coloured
same,irritation (in words),[1],considerable irritation
same,membrane damage (in words),[1],severe membrane damage
same,survival of the slugs,[1],all the slugs were dead
"CCCCCCCCCC(=O)OC[C@H](COP(=O)([O-])OCC[N+](C)(C)C)OC(=O)CCCCCCCCC [DDPC, didecanyol-L-α-phosphatidylcholine]",membrane damage (in words),[2]; [4],little or no damage
same,"% WL, reduction in weight (weight loss) caused by the 15 minute treatment as % of initial body weight of the day",[2]; day 1,4.84%
same,"% MP, mucus production as % of the body weight at the start of the day before the treatment",[2]; day 1,0.2%
same,ALP released into PBS,"[2]; day 1, 1% w/v",9.43 U/L
same,LDH released into PBS,"[2]; day 1, 1% w/v",9.51 U/L
same,Protein released into PBS,"[2]; day 1, 1% w/v",12.43 μg/30 μL
same,"% WL, reduction in weight (weight loss) caused by the 15 minute treatment as % of initial body weight of the day",[2]; day 2,1.19%
same,"% MP, mucus production as % of the body weight at the start of the day before the treatment",[2]; day 2,0%
same,ALP released into PBS,"[2]; day 2, 1% w/v",21.83 U/L
same,LDH released into PBS,"[2]; day 2, 1% w/v",14.47 U/L
same,Protein released into PBS,"[2]; day 2, 1% w/v",3.77 μg/30 μL
same,"% WL, reduction in weight (weight loss) caused by the 15 minute treatment as % of initial body weight of the day",[2]; day 3,1.15%
same,"% MP, mucus production as % of the body weight at the start of the day before the treatment",[2]; day 3,0%
same,ALP released into PBS,"[2]; day 3, 1% w/v",13.82 U/L
same,LDH released into PBS,"[2]; day 3, 1% w/v",23.36 U/L
same,Protein released into PBS,"[2]; day 3, 1% w/v",6.41 μg/30 μL
same,"% WL, reduction in weight (weight loss) caused by the 15 minute treatment as % of initial body weight of the day",[2]; day 4,1.39%
same,"% MP, mucus production as % of the body weight at the start of the day before the treatment",[2]; day 4,0%
same,ALP released into PBS,"[2]; day 4, 1% w/v",4.55 U/L
same,LDH released into PBS,"[2]; day 4, 1% w/v",19.07 U/L
same,Protein released into PBS,"[2]; day 4, 1% w/v",4.98 μg/30 μL
same,"% WL, reduction in weight (weight loss) caused by the 15 minute treatment as % of initial body weight of the day",[2]; day 5,1.14%
same,"% MP, mucus production as % of the body weight at the start of the day before the treatment",[2]; day 5,0%
same,ALP released into PBS,"[2]; day 5, 1% w/v",12.42 U/L
same,LDH released into PBS,"[2]; day 5, 1% w/v",28.32 U/L
same,Protein released into PBS,"[2]; day 5, 1% w/v",2.40 μg/30 μL
"CCN(CC)CC(=O)Nc1c(C)cccc1C [Lidocaine HCl, lidocaine HCl]",damage (in words),[3]; [4],little or no damage
same,"% MP, mucus production as % of the body weight at the start of the day before the treatment","[3]; day 1, 1% w/v in PBS, 15 min",0%
same,"% MP, mucus production as % of the body weight at the start of the day before the treatment","[3]; day 2, 1% w/v in PBS, 15 min",0%
same,"% MP, mucus production as % of the body weight at the start of the day before the treatment","[3]; day 3, 1% w/v in PBS, 15 min",0%
same,"% MP, mucus production as % of the body weight at the start of the day before the treatment","[3]; day 4, 1% w/v in PBS, 15 min",0%
same,"% MP, mucus production as % of the body weight at the start of the day before the treatment","[3]; day 5, 1% w/v in PBS, 15 min",0%
"CCN(CC)CCOC(=O)c1ccc(N)cc1 [Procaine HCl, procaine HCl]","% MP, mucus production as % of the body weight at the start of the day before the treatment","[3]; Arion (slug), in vivo, 1 day",0%
same,Total protein release into PBS,"[3]; Arion (slug), in vivo, 1 day",204 µg/mL
same,"% MP, mucus production as % of the body weight at the start of the day before the treatment","[3]; Arion (slug), in vivo, 2 day",0%
same,Total protein release into PBS,"[3]; Arion (slug), in vivo, 2 day",62 µg/mL
same,"% MP, mucus production as % of the body weight at the start of the day before the treatment","[3]; Arion (slug), in vivo, 3 day",0%
same,Total protein release into PBS,"[3]; Arion (slug), in vivo, 3 day",92 µg/mL
same,"% MP, mucus production as % of the body weight at the start of the day before the treatment","[3]; Arion (slug), in vivo, 4 day",0%
same,Total protein release into PBS,"[3]; Arion (slug), in vivo, 4 day",54 µg/mL
same,"% MP, mucus production as % of the body weight at the start of the day before the treatment","[3]; Arion (slug), in vivo, 5 day",0%
same,Total protein release into PBS,"[3]; Arion (slug), in vivo, 5 day",70 µg/mL
same,damage (in words),[3]; in vivo,little or no damage
